Data from the supplement of paper PMC10307832.

Assays:
Assay in all cases: relative viability (nuclei count vs DMSO), 5 days (fraction); higher = more cells survive
Midostaurin + Alpelisib = compound: CO[C@@H]1[C@H](N(C)C(=O)c2ccccc2)C[C@H]2O[C@]1(C)n1c3ccccc3c3c4c(c5c6ccccc6n2c5c31)C(=O)NC4 [Midostaurin] + Cc1nc(NC(=O)N2CCC[C@H]2C(N)=O)sc1-c1ccnc(C(C)(C)C(F)(F)F)c1 [Alpelisib] (partner 2 µM)
In short: (§1)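 Values are medians from duplicate plates. Each reflects relative viability, defined as the nuclei count of treated wells over that of vehicle wells. Lung cancer cell lines in 1536-well plates were pin-tool dosed one day after seeding with one drug alone or with a fixed anchor-drug dose plus five library-drug doses (not always all listed) in √10 steps, then fixed, stained and imaged at 4× after 5 days.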

Midostaurin + Pemetrexed = compound: CO[C@@H]1[C@H](N(C)C(=O)c2ccccc2)C[C@H]2O[C@]1(C)n1c3ccccc3c3c4c(c5c6ccccc6n2c5c31)C(=O)NC4 [Midostaurin] + Nc1nc2[nH]cc(CCc3ccc(C(=O)N[C@@H](CCC(=O)O)C(=O)O)cc3)c2c(=O)[nH]1 [Pemetrexed] (partner 0.2 µM)
In short: as §1

Midostaurin + Olaparib = compound: CO[C@@H]1[C@H](N(C)C(=O)c2ccccc2)C[C@H]2O[C@]1(C)n1c3ccccc3c3c4c(c5c6ccccc6n2c5c31)C(=O)NC4 [Midostaurin] + O=C(c1cc(Cc2n[nH]c(=O)c3ccccc23)ccc1F)N1CCN(C(=O)C2CC2)CC1 [Olaparib] (partner 8 µM)
In short: as §1

[1] = compound: COc1cc(-c2nn([C@H]3CC[C@H](N4CCN(C(C)=O)CC4)CC3)c3ncnc(N)c23)ccc1NC(=O)c1cc2ccccc2n1C + C[C@]1(O)C[C@@H](c2nc(-c3ccc4ccc(-c5ccccc5)nc4c3)c3c(N)nccn32)C1 [Linsitinib] (partner 1 µM)
In short: as §1

[2] = compound: COc1cc(-c2nn([C@H]3CC[C@H](N4CCN(C(C)=O)CC4)CC3)c3ncnc(N)c23)ccc1NC(=O)c1cc2ccccc2n1C + O=C(c1cc(Cc2n[nH]c(=O)c3ccccc23)ccc1F)N1CCN(C(=O)C2CC2)CC1 [Olaparib] (partner 8 µM)
In short: as §1

Cell Line	relative viability (Midostaurin + Alpelisib; first compound 0.01 µM)	relative viability (Midostaurin + Alpelisib; first compound 0.03162 µM)	relative viability (Midostaurin + Alpelisib; first compound 0.1 µM)	relative viability (Midostaurin + Alpelisib; first compound 0.3162 µM)	relative viability (Midostaurin + Pemetrexed; first compound 0.01 µM)	relative viability (Midostaurin + Pemetrexed; first compound 0.03162 µM)	relative viability (Midostaurin + Pemetrexed; first compound 0.1 µM)	relative viability (Midostaurin + Pemetrexed; first compound 0.3162 µM)	relative viability (Midostaurin + Olaparib; first compound 0.01 µM)	relative viability (Midostaurin + Olaparib; first compound 0.03162 µM)	relative viability (Midostaurin + Olaparib; first compound 0.1 µM)	relative viability (Midostaurin + Olaparib; first compound 0.3162 µM)	relative viability ([1]; first compound 0.0128 µM)	relative viability ([1]; first compound 0.04048 µM)	relative viability ([1]; first compound 0.128 µM)	relative viability ([1]; first compound 1.28 µM)	relative viability ([2]; first compound 0.0128 µM)	relative viability ([2]; first compound 0.04048 µM)	relative viability ([2]; first compound 0.128 µM)	relative viability ([2]; first compound 1.28 µM)
NCI-H1437	1.06	0.995	0.96	0.986	0.311	0.3	0.332	0.323	0.618	0.665	0.629	0.516	0.987	1.08	0.986	0.523	0.689	0.636	0.628	0.595
COR-L23	0.737	0.659	0.818	0.497	0.195	0.205	0.195	0.188	0.386	0.269	0.279	0.255	0.866	0.96	0.992	0.924	0.347	0.41	0.367	0.395
ABC-1	1.05	0.879	0.816	0.897	–	–	–	–	0.691	1.31	0.59	0.928	0.709	0.887	0.749	0.697	0.6	0.835	0.665	0.806
NCI-H522	–	–	–	–	1.19	1.14	0.941	1.24	0.546	0.748	0.578	0.682	–	–	–	–	0.558	0.593	0.617	0.522
NCI-H838	1.02	0.772	0.865	0.407	0.238	0.236	0.208	0.216	0.748	0.839	0.511	0.229	0.974	1.1	1.06	0.657	0.799	0.807	0.741	0.471
SW 900	–	–	–	–	0.468	0.477	0.488	0.478	0.826	1.08	0.852	0.575	–	–	–	–	1	1.17	0.845	0.574
A549	0.742	0.705	0.679	0.265	–	–	–	–	0.256	0.39	0.359	0.216	0.552	0.666	0.619	0.465	0.302	0.47	0.465	0.271
A-427	1.05	0.996	1.07	0.982	1.04	0.888	0.94	1.08	0.711	0.654	0.713	0.725	1.16	1.08	1.07	0.963	0.768	0.737	0.782	0.754
NCI-H1792	0.703	0.672	0.63	0.654	0.761	0.835	0.756	0.424	0.383	0.308	0.249	0.146	0.565	0.485	0.392	0.449	0.481	0.532	0.416	0.416
NCI-H1703	0.343	0.369	0.27	0.209	–	–	–	–	0.507	0.421	0.298	0.216	0.984	0.193	0.637	0.323	0.386	0.283	0.386	0.184
ChaGo-K-1	–	–	–	–	0.25	0.266	0.256	0.277	0.439	0.404	0.338	0.433	–	–	–	–	0.488	0.452	0.409	0.328
Calu-6	0.944	0.913	0.914	0.766	–	–	–	–	0.421	0.638	0.509	0.495	0.901	0.657	0.858	0.785	0.581	0.611	0.516	0.424
NCI-H1648	–	–	–	–	0.671	–	–	0.823	1.08	–	–	0.767	–	–	–	–	0.94	0.928	1.23	0.515
EBC-1	0.871	0.735	0.746	0.605	–	–	–	–	0.719	0.589	0.673	0.679	0.77	0.959	0.898	0.896	0.679	0.746	0.546	0.654
NCI-H1299	1.03	1.05	1.04	1.03	–	–	–	–	0.919	0.942	0.985	0.924	1.01	0.871	0.999	0.655	0.978	1.01	0.914	1.01
NCI-H2342	–	–	–	–	0.785	0.72	0.794	0.73	0.419	0.394	0.422	0.489	–	–	–	–	0.511	0.423	0.388	0.371
IA-LM	0.853	–	0.821	0.891	–	–	–	–	0.746	0.653	0.748	0.881	0.606	0.299	0.698	0.815	0.871	0.877	1.03	0.961
NCI-H2170	0.828	0.856	0.722	0.707	0.297	0.268	0.265	0.266	0.569	0.569	0.551	0.54	–	–	–	–	0.72	0.615	0.595	0.541
NCI-H727	0.526	0.471	0.538	0.296	–	–	–	–	0.659	0.62	0.628	0.68	0.401	–	0.162	0.33	0.674	–	0.819	0.78
